Here are results for one compound from patent US10420731B1, “Method of synthesizing lignin-based nanocompositions” (KING SAUD UNIVERSITY, priority 2019, dated 2019).

Data set [1] relates to Caco-2 cells. The experiment in a line: MTT cell viability assay. The format is cell-based, human. The note with it: CUR 50 μM and 80 μM, 24 h, MTT (FIG. 9). As to the method:
Differentiated Caco-2 cells (ATCC, Rockville, Md., USA) were maintained in DMEM (4.5 g/L glucose) medium supplemented with 20% FBS (HyClone; Thermo Scientific, Waltham, Mass., USA), 1% non-essential amino acids, 1% L-glutamine, 1% streptomycin (100 μg/ml) and penicillin (100 IU/ml). The growth medium was changed every day in the first two weeks followed by three times a week.
Caco-2 cell line was transferred into 96-well plates, at a density of 5×10^4 cells per well. After cell adhesion, the culture media was removed and the cells were incubated with 250 μL of culture media containing a concentration range from 10 μM to 300 μM of CUR as free, CUR loaded LG NPs and equivalent unloaded LG NPs.
For free CUR, the samples were prepared from a stock solution in DMSO with appropriate dilutions to reach a maximum of 2% (v/v) of DMSO in each well. After a 24 h incubation period, the supernatant was removed and replaced by 100 μL of MTT solution (0.5 mg/ml) at (37 C°, 5% CO2) to allow MTT to be metabolized. […] Optical density was read at a wavelength of 570 nm using a microplate reader (ELX 800, Bio-Tek Instruments, Winooski, Vt., USA).
The induced cytotoxicity was calculated by comparing the optical density (OD) values against control wells. […] All measurements were performed in triplicate and the means±standard deviation (SD) were calculated.

For data set [2], the system named is Caco-2 cell monolayer. Particulars: in-vitro Caco-2 model system, previously known; cited from earlier work.
The conditions of data set [3]: reported; cited from earlier work.
For data set [4] the following is noted: prior study; cited from earlier work.

Consider `COc1cc(/C=C/C(=O)CC(=O)/C=C/c2ccc(O)c(OC)c2)ccc1O` [curcumin], for which the Cell viability result in data set [1] was “below 50%”. Moreover, the apparent permeability coefficient (Papp) in data set [2] was less than 3.18 ×10⁻⁶ cm/s. Also, the “log P” value in data set [3] is on record as 3.7. Moreover, the Oral bioavailability in data set [4] was 1%.
